Results from US9260473B2, “Bivalent multifunctional ligands targeting Aβ oligomers as treatment for Alzheimer's disease” (Virginia Commonwealth University, priority 2010, dated 2016).
One block for each compound: values may come before it.

Assays:
[1] = system: MC65 cells; assay: Cytotoxicity assay in MC65 cells (MTS, +TC/−TC); type: cell-based, human
From the text: Protective effects of 14 on AβOs-induced cytotoxicity in MC65 cells and differentiated human neuroblastoma SH-SY5Y cells. […] To further verify whether 14 can protect cells from extracellular AβOs-induced cytotoxicity, all trans-retinoic acid differentiated human SH-SY5Y cells were employed. […] This may further indicate that while both 1 and 14 can bind to AβOs, CM/LR anchorage of 14 can increase its accessibility to intracellular target AβOs. Since CM/LR are crucial for many aspects of cell signaling and functions, 14 was further evaluated for its potential cytotoxicity in mouse spleen and natural killer (NK) cells.
Cytotoxicity assay in MC65 cells. MC65 cells were seeded in 96-well plates (4×10^4 cells/well) at 37° C., 5% CO2 for 24 hrs. The medium was removed and washed with PBS twice. Opti-MEM and test compounds were added under +TC and −TC conditions. The plates were incubated at 37° C., 5% CO2 for 72 hrs, then 20 uL CellTiter 96 AQueous One Solution (Promega, Madison, Wis.) were added to each well and the plates were incubated at 37° C., 5% CO2 for 2-4 hrs. The plates were read at 490 nm using FlexStation III plate reader (Molecular Devices). The blank with only test compounds in Opti-MEM was set up as background control for all of the tested concentrations. Each data point was averaged from six replicates and the experiments were independently repeated at least three times.

[2] = system: intracellular oxidative stress; assay: DCFH-DA antioxidation assay in MC65 cells; type: cell-based, human; conditions: −TC, 24 hrs
Experimental: DCFH-DA antioxidation assay. MC65 cells were seeded in 96-well plates (4×10^4 cells/well). After incubation at 37° C., 5% CO2 for 24 hrs, the medium was removed and washed with PBS. Opti-MEM and test compounds were added (+TC, −TC, and blank with only test compounds). MC65 cells were incubated at 37° C., 5% CO2 for 24 hrs. Then DCFH-DA in Opti-MEM was added to each well (final DCFH-DA concentration was 25 uM) and incubate at 37° C., 5% CO2 for 30 min. The medium was removed and replaced with fresh opti-MEM and plates were read for fluorescence intensity at 485 nm (excitation)/530 nm (emission) using FlexStation III plate reader (Molecular Devices).

[3] = biological target: T1, Aβ42 (Homo sapiens, UniProt P05067); assay: Aβ42 oligomerization inhibition assay (Western blot); type: biochemical; conditions: Aβ42 5 μM, compound 20 μM, 4 hrs at 37° C.
T1 construct: Aβ42 was obtained from American Peptide, Inc. (Sunnyvale, Calif.); purchased American Peptide, Inc. (Sunnyvale, Calif.)
T1 sequence (P05067 672-713 limits assumed): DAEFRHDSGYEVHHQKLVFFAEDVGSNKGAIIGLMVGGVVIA

[4] = system: AβOs; assay: Immunocytochemistry assay of AβOs in MC65 cells (A11 antibody); type: cell-based, human; conditions: 10 μM, 24 hrs after removal of TC
Experimental: MC65 cells were treated with the indicated compounds (10 μM) immediately after the removal of TC. After 24 hrs, the cells were fixed and immunofluorescently stained for AβOs, CM/LR, and nucleus and imaged with a Leica TCS-SP2 AOBS confocal laser scanning microscope. Five areas were examined.
Immunocytochemistry assay. MC65 cells were plated onto Lab-Tee chamber slides (1×10^4 cells/well). After 24 hrs incubation at 37° C. and 5% CO2, Opti-MEM was added (with or without TC) and followed by test compounds. MC65 cells were incubated for 24 hrs. MC65 cells were rinsed 3× with PBS and incubated with Alexa 488-conjugated CTX-B (10 ug/mL) for 15 min on ice. After rinsing once with ice-cold PBS, cells were fixed for 30 min with 4% paraformaldehyde. MC65 cells were permeabilized for 30 min with 0.1% Triton X 100. Then MC65 cells were stained with A11 rabbit antibody followed by anti-rabbit Alexa 568 (1:500). Finally MC65 cells were treated with DAPI (5 ug/mL) and mounted with Vectashield Mounting Media. Cell fluorescence was analyzed by a Leica TCS-SP2 AOBS confocal laser scanning microscope equipped with blue diode, Argon, and 3 HeNe (lasers as well as a spectrophotometer based detection system with variable detector windows) using excitation lines at 355 nm, 488 nm, and 568 nm for DAPI, Alexa 488-conjugated CTX-B, and Alexa Fluor 568 donkey anti-rabbit IgG. […]

[5] = system: AβOs; assay: Western blot assay of AβOs formation in MC65 cells (6E10 antibody); type: cell-based, human; conditions: 10 μM, 24 hrs after removal of TC
From the text: Inhibition of AβOs production by designed BMAOIs. […] The whole cell assay is a composite of not only Aβ oligomerization inhibition but also permeability, stability and other factors will validate the accessibility and function of our BMAOIs. MC65 is a human neuroblastoma cell line that conditionally expresses C99, the C-terminus fragment of APP using tetracycline (TC) as transgene suppressor.^38 Upon removal of TC, these cells can produce intracellular Aβ aggregates including small AβOs. […] All BMAOIs were first evaluated at a single concentration of 10 μM. Candidate compounds with inhibitory activities at this concentration were further evaluated in a dose-dependent manner in the following assays. […]
Western blot assay. […] Pellet was lysed by sonication in 1× lysis buffer (62.5 mM Tris base, pH6.8, 2% SDS, 50 mM DTT, 10% glycerol, 0.1% bromphenol blue, and […] each chymostatin, leupeptin, aprotinin, pepstatin, and soybean trypsin inhibitor) and protein level was determined using Coomassie Protein Assay Reagent (Pierce, Rockford, Ill.). […]

[6] = system: SH-SY5Y cells; assay: Cytotoxicity assay in differentiated SH-SY5Y cells treated with AβOs; type: cell-based, human; conditions: AβOs 1 μM
Experimental: Cytotoxicity assay in differentiated SH-SY5Y cells. SH-SY5Y cells were plated at 10,000 cells/well in type 1 collagen coated 96-well plates (Invitrogen) and were differentiated in Opti-MEM supplemented with 2% B-27 (Invitrogen) and 10 μM all-trans-retinoic acid for 7 days. The medium was removed and replaced with fresh maintenance medium. Freshly prepared Aβ42 oligomers in Ham's F-12 medium (1 μM) was added to cells for 48 hrs at 37° C. with or without test compounds. After treatment, 20 uL CellTiter 96 AQueous One Solution (Promega, Madison, Wis.) were added to each well and the plates were incubated at 37° C., 5% CO2 for 2-4 hrs. The plates were read at 490 nm in FlexStation III plate reader (Molecular Devices). Each data point was averaged from six replicates and the experiments were independently repeated at least three times.

SMILES: CC(=O)N[C@@H](CS)C(=O)O [NAC, N-acetylcysteine]
- rescue of MC65 cells from AβOs-induced cytotoxicity ([1]; −TC): 48%

- inhibition of oligomerization of Aβ42 [3]: inhibited the oligomerization of Aβ42
SMILES: COc1cc(/C=C/C(=O)CC(=O)/C=C/c2ccc(O)c(OC)c2)ccc1O [compound 1, curcumin, reference compound]
- suppression of intracellular oxidative stress (DCFH-DA fluorescence) [2]: suppressed the intracellular oxidative stress in a dose-depndent manner
- formation of AβOs (A11 immunocytochemistry) [4]: slightly suppressed
- inhibition of the formation of AβOs (Western blot) [5]: did not exhibit inhibition
- protection of SH-SY5Y cell viability from AβOs ([6]; 48 hrs, 16 μM): not at 16 μM
- protection of SH-SY5Y cell viability from AβOs ([6]; 48 hrs, 2, 4, and 8 μM): moderate protective activities
- toxic effects on MC65 cell viability in the presence of TC ([1]; +TC, tested concentrations, 72 hrs, MTS): no toxic effects
- protective effects on MC65 cell viability upon removal of TC ([1]; −TC, 72 hrs, MTS): minimal protective effects

SMILES: Cc1c(C)c2c(c(C)c1O)CCC(C)(C(=O)O)O2 (stereo not shown) [trolox, 6-hydroxy-2,5,7,8-tetramethyl chroman-2-carboxylic acid]
- rescue of MC65 cells from AβOs-induced cytotoxicity ([1]; −TC, 32 μM): completely rescued
